Results from a compilation of properties of binary mixtures (doi:10.1016/j.jct.2022.106789).

Test: xn = mol fraction of the nth substance listed
Conditions: 100 kPa

CCCCCC[N+](CC)(CC)CC.O=S(=O)([N-]S(=O)(=O)C(F)(F)F)C(F)(F)F + CC(C)O
Conditions	speed of sound, 293.15 K [m/s]	speed of sound, 298.15 K [m/s]	speed of sound, 303.15 K [m/s]	speed of sound, 308.15 K [m/s]	speed of sound, 313.15 K [m/s]	viscosity, 293.15 K [mPa·s]	viscosity, 298.15 K [mPa·s]	viscosity, 303.15 K [mPa·s]	viscosity, 308.15 K [mPa·s]	viscosity, 313.15 K [mPa·s]
x2 = 0	1295.3	1282.7	1270.4	1258.3	1246.7	241	187	138	105	80.7
x2 = 0.096	–	1277.1	1264.8	1252.7	–	–	136	109	90	–
x2 = 0.2045	1282.6	–	1257.8	1246	1233.9	108	–	83.1	68.1	55.3
x2 = 0.3101	1273.6	–	–	1236.2	1224	74.1	–	–	49.3	41.4
x2 = 0.4056	1264	1250.9	1237.9	–	1213.3	55.3	50.3	44.3	–	30
x2 = 0.4987	1253.3	–	1226.8	–	1201.7	42.1	–	31.8	–	21.9
x2 = 0.5916	1240.8	1227.6	1214.5	–	–	30.7	25.3	20.9	–	–
x2 = 0.7088	1220.1	1206.5	1192.8	1179.4	1166	17.9	14.4	12.1	10.4	9.33
x2 = 0.8015	1198	1184	1170.3	–	1142.5	11.2	8.83	7.01	–	4.94
x2 = 0.9193	1167	1151.8	1136.7	–	1106.5	5.24	4.36	3.67	–	2.38
x2 = 0.9503	1161	–	–	–	–	–	–	–	–	–

CCCCCC[n+]1ccn(C)c1.O=S(=O)([O-])C(F)(F)F + CC(C)O
Conditions	speed of sound, 293.15 K [m/s]	speed of sound, 298.15 K [m/s]	speed of sound, 303.15 K [m/s]	speed of sound, 308.15 K [m/s]	speed of sound, 313.15 K [m/s]	viscosity, 293.15 K [mPa·s]	viscosity, 298.15 K [mPa·s]	viscosity, 303.15 K [mPa·s]	viscosity, 308.15 K [mPa·s]	viscosity, 313.15 K [mPa·s]
x2 = 0	1376.7	1364.8	1353.2	1342.1	1330.9	195	151	116	91.1	74
x2 = 0.1282	1366.5	–	1343	1331.5	1319.9	129	–	80	61.9	51.6
x2 = 0.2454	1353	–	1329.3	1316.1	1305.8	87.1	–	57.5	44.6	37.2
x2 = 0.3506	1338.3	1326	–	1301	1290.9	60	48.3	–	31.8	27
x2 = 0.469	1319.3	–	1294	1281.8	1270.2	37.8	–	27.2	21	18
x2 = 0.5728	1299.1	1286	1273.8	1260.3	1247.8	24.5	20.4	17.1	14.2	11.9
x2 = 0.6564	1280	1266.1	1253.7	1240.2	1227.4	16.1	13.6	11.3	9.6	8.4
x2 = 0.7574	1251.3	1237.2	1223.1	1209.3	1195.7	9.63	8.06	6.67	5.85	5.11
x2 = 0.8422	1221.4	1207.1	1192.8	1178.4	1163.3	5.86	4.82	4.21	3.59	3.13
x2 = 0.9231	–	1175.5	1159.6	1142.7	–	–	3.15	2.68	2.34	–

CC(C)O + CCCCCC[N+](CC)(CC)CC.O=S(=O)([N-]S(=O)(=O)C(F)(F)F)C(F)(F)F
x1 = 1
Conditions	speed of sound [m/s]	viscosity [mPa·s]
293.15 K	1155.7	2.42
313.15 K	1085.8	1.34

CC(C)O + CCCCCC[n+]1ccn(C)c1.O=S(=O)([O-])C(F)(F)F
x1 = 1
Conditions	speed of sound [m/s]	viscosity [mPa·s]
293.15 K	1155.7	2.42
303.15 K	1120.8	1.73
313.15 K	1085.8	1.34
